The source made the active and inactive calls. No cut-off for these calls is given here.
What follows are compounds tested on HSC-2 (assay: Cytotoxicity against human HSC2 cells at 100 uM after 24 hrs by MTT assay). Conditions: not given.
Type: functional, cell-based

Compound	Activity
CC1(C)CC[C@]2(C(=O)O[C@@H]3O[C@H](CO)[C@@H](O)[C@H](O)[C@H]3O)CC=C3[C@](C)([C@@H]2C1)[C@H]1O[C@H]1[C@@H]1[C@@]2(C)CC[C@H](O[C@@H]4O[C@H](C(=O)O)[C@@H](O)[C@H](O)[C@H]4O)C(C)(C)[C@@H]2CC[C@@]31C	inactive
CC1(C)CC[C@@]23CC[C@]4(C)[C@@](OC2=O)([C@@H]3C1)[C@H]1O[C@H]1[C@@H]1[C@@]2(C)CC[C@H](O[C@@H]3O[C@H](C(=O)O)[C@@H](O)[C@H](O[C@@H]5O[C@H](CO)[C@H](O)[C@H](O)[C@H]5O)[C@H]3O[C@@H]3O[C@H](CO)[C@@H](O)[C@H](O)[C@H]3O)C(C)(C)[C@@H]2CC[C@]14C	inactive
CC1(C)CC[C@@]23CC[C@]4(C)[C@@](OC2=O)([C@@H]3C1)[C@H]1O[C@H]1[C@@H]1[C@@]2(C)CC[C@H](O[C@@H]3O[C@H](C(=O)O)[C@@H](O)[C@H](O)[C@H]3O)C(C)(C)[C@@H]2CC[C@]14C	inactive

These compounds were tested on HSC-2 (assay: Cytotoxicity against human HSC2 cells after 24 hrs by MTT assay). Conditions: HSC-2, 24 h.
Type: functional, cell-based

Compound	IC50
CC1(C)CC[C@]2(C(=O)O)CC=C3[C@](C)([C@@H]2C1)[C@H]1O[C@H]1[C@@H]1[C@@]2(C)CC[C@H](O)C(C)(C)[C@@H]2CC[C@@]31C	21 µM
CC1(C)CC[C@@]23CC[C@]4(C)[C@@](OC2=O)([C@@H]3C1)[C@H]1O[C@H]1[C@@H]1[C@@]2(C)CC[C@H](O)C(C)(C)[C@@H]2CC[C@]14C	21 µM
COc1cc([C@@H]2c3cc4c(cc3[C@@H](O[C@@H]3O[C@@H]5CO[C@@H](C)O[C@H]5[C@H](O)[C@H]3O)[C@H]3COC(=O)[C@H]23)OCO4)cc(OC)c1O [ETOPOSIDE]	24 µM

Reference: ChEMBL document CHEMBL1158107, “Oleanane and taraxerane glycosides from the roots of Gomphrena macrocephala” (J Nat Prod, 2006)
